{
  "source": "paper PMC6379368",
  "about": "“Extracellular and intracellular small-molecule galectin-3 inhibitors” (Scientific Reports, 2019)",
  "biological_target": "galectin-3 (Homo sapiens, UniProt P17931)",
  "sequence (P17931 whole entry)": "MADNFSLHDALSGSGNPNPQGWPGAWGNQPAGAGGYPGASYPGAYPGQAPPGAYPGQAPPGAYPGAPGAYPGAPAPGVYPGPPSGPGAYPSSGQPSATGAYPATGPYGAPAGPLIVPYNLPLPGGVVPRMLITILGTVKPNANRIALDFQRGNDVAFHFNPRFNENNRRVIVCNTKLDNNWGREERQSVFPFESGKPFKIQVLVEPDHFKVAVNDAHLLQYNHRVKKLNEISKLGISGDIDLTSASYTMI",
  "assay": "GPN-induced galectin-3 accumulation (puncta) in JIMT-1 breast cancer cells",
  "assay_type": "cell-based",
  "set-up": "In the intracellular assay, in contrast, only endogenous galectin was present; endogenous in cells; host or cells: JIMT-1 breast cancer cells",
  "protocol": "The total number of galectin-3 puncta and nuclei in the microscopy images were quantified using the software ImageJ.\nCells were seeded in multi-well plates with sterile glass coverslips placed in each well and allowed to adhere to the cell culture surface for at least 24 hours. Then the cells were pre-treated with the different galectin-3 inhibitors at different concentrations (or DMSO as control) for 15 minutes or 24 hours followed by addition of the lysosomal damaging peptide GPN[42] and incubated another 13 minutes, with the inhibitors still present. The 13-minute incubation with GPN and 15-minute pre-incubation with inhibitors were done in DMEM/Ham’s F12 medium with 15 mM HEPES buffer (without serum), whereas the 24-hour incubation with inhibitors were performed in fully supplemented DMEM/Ham’s F12 medium (as described under Cell culture).\nAfter treatment with GPN, the cells were fixed in 3.7% (v/v) formaldehyde in phosphate-buffered saline (PBS) for 15 minutes, permeabilized and blocked using 1% (v/v) TWEEN 20 and 5% (w/v) BSA in PBS for 30 minutes, then incubated with primary and secondary antibodies for one hour each (washed with PBS in between). Primary and secondary antibodies for galectin-3 staining were a rat anti-mouse galectin-3 IgG antibody[50],[51] […] All antibodies were diluted in 0.05% TWEEN 20 and 5% BSA in PBS. […] The coverslips were mounted on glass slides using Mowiol® 4–88 and left at 8 °C overnight before further examination. For imaging of the cells, a LSM-510 confocal laser scanning microscope (Carl Zeiss Microscopy GmbH, Oberkochen, Germany), equipped with a Hamamatsu R6357 photomultiplier (Hamamatsu Photonics K.K., Hamamatsu, Japan), was used. […] Maximum intensity projections of each picture obtained were analyzed with ImageJ 1.47 v (Rasband, W.S., ImageJ, U. S. National Institutes of Health, Bethesda, Maryland, USA) to quantify the number of galectin-3 dots and the number of nuclei in each picture. The quantification of particles (i.e. galectin-3 puncta/nucleus) was carried out using batch processing in the software, where a single macro (including parameters such as image thresholds, particle size and circularity) was used for all images obtained from a single experiment, this to reduce user bias and time consumption.",
  "data": [
    {"smiles": "OC[C@H]1O[C@@H](S[C@@H]2O[C@H](CO)[C@H](O)[C@H](n3cc(-c4cccc(F)c4)nn3)[C@H]2O)[C@H](O)[C@@H](n2cc(-c3cccc(F)c3)nn2)[C@H]1O", "note": "[compound 1]", "values": [
      {"measurement": "inhibition of galectin-3 accumulation (extent)", "setting": "15 minutes pre-treatment, high concentrations 50–100 µM", "result": "complete inhibition of galectin-3 accumulation could not be reached"},
      {"measurement": "inhibition of galectin-3 accumulation (extent)", "setting": "24 hours pre-treatment, around 1–5 µM", "result": "nearly complete inhibition"}
    ]}
  ]
}
